Results: publication PMC8286840, “Identifying SARS-CoV-2 antiviral compounds by screening for small molecule inhibitors of Nsp3 papain-like protease” (Biochemical Journal, 2021)
Structures can show the parent of a compound that is named as a salt. Where two headings read alike, the source gives them in different places.

Columns and labels:
[1] = molecular target: T1, SARS-CoV-2 PLpro (nsp3 1564–1878) (Severe acute respiratory syndrome coronavirus 2, UniProt P0DTD1); assay: biochemical; set-up: FRET-quenched peptide (Pro3) cleavage by PLpro, 10 min pre-incubation, slope over 20 min, normalised to no-compound control; conditions: low concentration screen, read-out: % of control remaining
[2] = molecular target: T1, SARS-CoV-2 PLpro (nsp3 1564–1878); assay: biochemical; set-up: FRET-quenched peptide (Pro3) cleavage by PLpro, 10 min pre-incubation, slope over 20 min, normalised to no-compound control; conditions: high concentration screen, read-out: % of control remaining

## COc1ccc2c(c1)c(CC(=O)O)c(C)n2Cc1ccc(Cl)cc1 [1-(4-Chlorobenzyl)-5-methoxy-2-methylindole-3-acetic acid]
[1]; Well no.=379
  remaining activity at 1.25 µM: 99.8%
[2]; Well no.=379
  remaining activity at 3.75 µM: 99.4%

## COc1ccc2c(c1)c(CC(=O)O)c(C)n2Cc1ccc(F)cc1 [1-(4-Fluorobenzyl)-5-methoxy-2-methylindole-3-acetic acid]
[1]; Well no.=515
  remaining activity at 1.25 µM: 99.4%
[2]; Well no.=515
  remaining activity at 3.75 µM: 99.5%

## Oc1ccc(Cn2cc[nH]c2=S)cc1 [1-(4-Hydroxybenzyl)imidazole-2-thiol]
[1]; Well no.=516
  remaining activity at 1.25 µM: 104%
[2]; Well no.=516
  remaining activity at 3.75 µM: 105%

## COc1ccc2cc(OCC3(C(=O)O)CN(C(=O)c4ccc(F)cc4)C3)ccc2c1 [1-(4-fluorobenzoyl)-3-(((6-methoxynaphthalen-2-yl)oxy)methyl)azetidine-3-carboxylic acid]
[1]; Well no.=5909
  remaining activity at 1.25 µM: 103%
[2]; Well no.=5909
  remaining activity at 3.75 µM: 102%

## CC1CNCCN1S(=O)(=O)c1cccc2cnccc12 (stereo not shown) [1-(5-Isoquinolinylsulfonyl)-2-methylpiperazine dihydrochloride]
[1]; Well no.=965
  remaining activity at 1.25 µM: 104%
[2]; Well no.=965
  remaining activity at 3.75 µM: 103%

## CC1CN(S(=O)(=O)c2cccc3cnccc23)CCN1 (stereo not shown) [1-(5-Isoquinolinylsulfonyl)-3-methylpiperazine dihydrochloride]
[1]; Well no.=869
  remaining activity at 1.25 µM: 106%
[2]; Well no.=869
  remaining activity at 3.75 µM: 104%

## NC(N)=NC(N)=Nc1cccc(Cl)c1 [1-(m-Chlorophenyl)-biguanide hydrochloride]
[1]; Well no.=487
  remaining activity at 1.25 µM: 106%
[2]; Well no.=487
  remaining activity at 3.75 µM: 103%

## CN1CCN(CCCCN2C(=O)CN(/N=C/c3ccc(-c4ccc(Cl)cc4)o3)C2=O)CC1 [1-({(E)-[5-(4-chlorophenyl)-2-furyl]methylidene}amino)-3-[4-(4-methyl-1-piperazinyl)butyl]-2,4-imidazolidinedione dihydrochloride]
[1]; Well no.=5603
  remaining activity at 1.25 µM: 97.6%
[2]; Well no.=5603
  remaining activity at 3.75 µM: 101%

## C=CCn1c(=O)c2c(nc(-c3ccc(S(=O)(=O)O)cc3)n2C)n(C)c1=O [1-Allyl-3,7-dimethyl-8-p-sulfophenylxanthine]
[1]; Well no.=16
  remaining activity at 1.25 µM: 98.3%
[2]; Well no.=16
  remaining activity at 3.75 µM: 89.6%

## NC1(C(=O)O)CCCCC1 [1-Amino-1-cyclohexanecarboxylic acid hydrochloride]
[1]; Well no.=160
  remaining activity at 1.25 µM: 100%
[2]; Well no.=160
  remaining activity at 3.75 µM: 102%

## Nn1nnc2ccccc21 [1-Aminobenzotriazole]
[1]; Well no.=253
  remaining activity at 1.25 µM: 98.6%
[2]; Well no.=253
  remaining activity at 3.75 µM: 99%

## NC1(C(=O)O)CC1 [1-Aminocyclopropanecarboxylic acid hydrochloride]
[1]; Well no.=341
  remaining activity at 1.25 µM: 100%
[2]; Well no.=341
  remaining activity at 3.75 µM: 102%

## O=C1Cc2c([nH]c3ccc(Br)cc23)-c2ncccc2N1 [1-Azakenpaullone]
[1]; Well no.=2335
  remaining activity at 1.25 µM: 96.4%
[2]; Well no.=2335
  remaining activity at 3.75 µM: 97.1%

## OC[C@H]1NC[C@H](O)[C@@H](O)[C@@H]1O [1-Deoxynojirimycin hydrochloride]
[1]; Well no.=586
  remaining activity at 1.25 µM: 102%
[2]; Well no.=586
  remaining activity at 3.75 µM: 102%

## CCCCCCCCCCCCCCCCOCC(CO)OC(C)=O (stereo not shown) [1-Hexadecyl-2-O-acetyl-glycerol]
[1]; Well no.=4238
  remaining activity at 1.25 µM: 95.2%
[2]; Well no.=4238
  remaining activity at 3.75 µM: 98.7%

## CCCCCCCCCCCCCCCCOC[C@H](CO)OC [1-Hexadecyl-2-O-methyl-glycerol]
[1]; Well no.=4572
  remaining activity at 1.25 µM: 97.5%
[2]; Well no.=4572
  remaining activity at 3.75 µM: 99.2%

## CCCCCCCCCCCCCCCCOCC(COP(=O)([O-])OCC[N+](C)(C)C)OC (stereo not shown) [1-Hexadecyl-2-methylglycero-3 PC]
[1]; Well no.=4259
  remaining activity at 1.25 µM: 95.4%
[2]; Well no.=4259
  remaining activity at 3.75 µM: 92%

## Cn1cnc2c(ncn2[C@@H]2O[C@H](CO)[C@@H](O)[C@H]2O)c1=N [1-Methyladenosine]
[1]; Well no.=7121
  remaining activity at 1.25 µM: 102%
[2]; Well no.=7121
  remaining activity at 3.75 µM: 98.5%

## Cn1cnc(CCN)c1 [1-Methylhistamine dihydrochloride]
[1]; Well no.=928
  remaining activity at 1.25 µM: 101%
[2]; Well no.=928
  remaining activity at 3.75 µM: 103%

## Cn1ccnc1 [1-Methylimidazole]
[1]; Well no.=939
  remaining activity at 1.25 µM: 101%
[2]; Well no.=939
  remaining activity at 3.75 µM: 102%

## Cn1cnc2c(ncn2[C@@H]2O[C@H](CO)[C@@H](O)[C@H]2O)c1=O [1-Methylinosine]
[1]; Well no.=7167
  remaining activity at 1.25 µM: 103%
[1]; Well no.=7858
  remaining activity at 1.25 µM: 102%
[2]; Well no.=7167
  remaining activity at 3.75 µM: 101%

## CC(C)(C)n1nc(-c2cccc3ccccc23)c2c(N)ncnc21 [1-Naphthyl PP1 - 1-(1,1-Dimethylethyl)-3-(1-naphthalenyl)-1H-pyrazolo[3,4-d]pyrimidin-4-amine]
[1]; Well no.=2674
  remaining activity at 1.25 µM: 98%
[2]; Well no.=2674
  remaining activity at 3.75 µM: 98.4%

## CCCCCCCC/C=C\CCCCCCCC(=O)OC[C@H](CO)OC(C)=O [1-Oleoyl-2-acetyl-glycerol]
[1]; Well no.=4480
  remaining activity at 1.25 µM: 97.7%
[2]; Well no.=4480
  remaining activity at 3.75 µM: 99.2%

## S=C(Nc1ccccc1)Nc1nccs1 [1-Phenyl-3-(2-thiazolyl)-2-thiourea]
[1]; Well no.=858
  remaining activity at 1.25 µM: 99.5%
[2]; Well no.=858
  remaining activity at 3.75 µM: 96.6%

## NC(N)=NC(N)=Nc1ccccc1 [1-Phenylbiguanide]
[1]; Well no.=1263
  remaining activity at 1.25 µM: 102%
[2]; Well no.=1263
  remaining activity at 3.75 µM: 102%

## CCCCC/C=C\C/C=C\C/C=C\C/C=C\CCCC(=O)O[C@@H](CO)COC(=O)CCCCCCCCCCCCCCCCC [1-Stearoyl-2-arachidonoyl-glycerol]
[1]; Well no.=4482
  remaining activity at 1.25 µM: 95.9%
[2]; Well no.=4482
  remaining activity at 3.75 µM: 96.2%

## FC(F)(F)c1ccccc1-n1ccnc1 [1-[2-(Trifluoromethyl)phenyl]imidazole]
[1]; Well no.=1533
  remaining activity at 1.25 µM: 89.9%
[2]; Well no.=1533
  remaining activity at 3.75 µM: 90.7%

## O=c1ccn([C@@H]2O[C@H](CO)[C@@H](O)[C@@H]2O)c(=O)[nH]1 [1-_beta-_D-_Arabinofuranosylurac_il]
[1]; Well no.=8887
  remaining activity at 1.25 µM: 95.2%
[2]; Well no.=8887
  remaining activity at 3.75 µM: 94.3%

## C=CC(=O)N1C/C(=C\c2ccc([N+](=O)[O-])cc2)C(=O)/C(=C/c2ccc([N+](=O)[O-])cc2)C1 [1-acryloyl-3,5-bis((E)-4-nitrobenzylidene)piperidin-4-one]
[1]; Well no.=6015
  remaining activity at 1.25 µM: 103%
[2]; Well no.=6015
  remaining activity at 3.75 µM: 99.9%

## COc1ccc2c(c1)c(CC(=O)O)c(C)n2C(=O)c1ccccc1 [1-benzoyl-5-methoxy-2-methylindole-3-acetic acid]
[1]; Well no.=118
  remaining activity at 1.25 µM: 102%
[2]; Well no.=118
  remaining activity at 3.75 µM: 104%

## O=C(O)c1cn(C2CC2)c2cc(N3C[C@@H]4C[C@H]3CN4)c(F)cc2c1=O [1-cyclopropyl-7-[(1S,4S)-2,5-diazabicyclo[2.2.1]hept-2-yl]-6-fluoro-4-oxo-1,4-dihydro-3-quinolinecarboxylic acid methanesulfonate hydrate]
[1]; Well no.=5598
  remaining activity at 1.25 µM: 91.4%
[2]; Well no.=5598
  remaining activity at 3.75 µM: 86.5%

## Nc1ncnc2c1ncn2[C@H]1CC[C@@H](CO)O1 [2',3'-Dideoxyadenosine]
[1]; Well no.=7998
  remaining activity at 1.25 µM: 97.5%
[2]; Well no.=7998
  remaining activity at 3.75 µM: 94.3%

## Cc1cn([C@H]2C=C[C@@H](CO)O2)c(=O)[nH]c1=O [2',3'-didehydro-3'-deoxythymidine]
[1]; Well no.=445
  remaining activity at 1.25 µM: 104%
[2]; Well no.=445
  remaining activity at 3.75 µM: 105%
